Results reported in PubChem BioAssay AID248 (DTP/NCI, 2004).
Where “and” joins values, the source holds several entries; their conditions need not be identical. Identical values can stand only once. Toxic doses and inconclusive results are not listed.

Test system: L1210 leukemia ip in BDF1 mice, survival T/C
Test: NCI In Vivo Anticancer Drug Screen. Data for tumor model L1210 Leukemia (intraperitoneal) in B6D2F1 (BDF1) mice
Details: endpoint: mean survival time, higher = longer survival
Method in brief: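 In this screen, tumor-bearing mice given compound are compared to those given vehicle, and their survival values are reported as a treated-to-control quotient.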

[1] = dose: 50.0 mg/kg/injection, schedule: Q04DX002 (ip), vehicle: saline with Tween-80
[2] = dose: 100.0 mg/kg/injection, schedule: Q04DX003 (ip), vehicle: acetone
[3] = dose: 100.0 mg/kg/injection, schedule: Q04DX003 (ip), vehicle: saline
[4] = dose: 200.0 mg/kg/injection, schedule: Q04DX003 (ip), vehicle: acetone
[5] = dose: 200.0 mg/kg/injection, schedule: Q04DX003 (ip), vehicle: saline
[6] = dose: 400.0 mg/kg/injection, schedule: Q04DX003 (ip), vehicle: acetone
[7] = dose: 400.0 mg/kg/injection, schedule: Q04DX003 (ip), vehicle: saline
[8] = dose: 100.0 mg/kg/injection, schedule: Q04DX003 (ip), vehicle: Klucel (hydroxypropylcellulose) (HPC)
[9] = dose: 200.0 mg/kg/injection, schedule: Q04DX003 (ip), vehicle: Klucel (hydroxypropylcellulose) (HPC)
[10] = dose: 400.0 mg/kg/injection, schedule: Q04DX003 (ip), vehicle: Klucel (hydroxypropylcellulose) (HPC)
[11] = dose: 100.0 mg/kg/injection, schedule: Q04DX002 (ip), vehicle: Klucel (hydroxypropylcellulose) (HPC)
[12] = dose: 200.0 mg/kg/injection, schedule: Q04DX002 (ip), vehicle: Klucel (hydroxypropylcellulose) (HPC)
[13] = dose: 400.0 mg/kg/injection, schedule: Q04DX002 (ip), vehicle: Klucel (hydroxypropylcellulose) (HPC)
[14] = dose: 100.0 mg/kg/injection, schedule: Q01DX009 (ip), vehicle: Klucel (hydroxypropylcellulose) (HPC)
[15] = dose: 200.0 mg/kg/injection, schedule: Q01DX009 (ip), vehicle: Klucel (hydroxypropylcellulose) (HPC)
[16] = dose: 400.0 mg/kg/injection, schedule: Q01DX009 (ip), vehicle: Klucel (hydroxypropylcellulose) (HPC)

In the case of `CN1CN2c3ccccc3CCC2C2CCCC21` (stereo not given), the T/C [1] was 104 % of control, the T/C (dose: 100.0 mg/kg/injection, schedule: Q04DX002 (ip), vehicle: saline with Tween-80) was 96 % of control and the T/C (dose: 200.0 mg/kg/injection, schedule: Q04DX002 (ip), vehicle: saline with Tween-80) was 101 % of control.

In the case of `Cc1ccc([As+](c2ccccc2)(c2ccccc2)c2ccccc2)cc1`, the T/C (dose: 5.0 mg/kg/injection, schedule: Q01DX001 (ip), vehicle: saline) was 101 % of control, the T/C (dose: 10.0 mg/kg/injection, schedule: Q01DX001 (ip), vehicle: saline) was 95 % of control and the T/C (dose: 20.0 mg/kg/injection, schedule: Q01DX001 (ip), vehicle: saline) was 96 % of control.

`CN1CN(C2CCCCC2)CSC1=S` was tested, and the T/C (dose: 100.0 mg/kg/injection, schedule: Q01DX001 (ip), vehicle: acetone) was 95 % of control, the T/C [2] was 101 % of control and the T/C [3] was 101 % of control. The T/C (dose: 200.0 mg/kg/injection, schedule: Q01DX001 (ip), vehicle: acetone) was 92 % of control, the T/C [4] was 106 % of control and the T/C [5] was 102 % of control. For the same compound, the T/C (dose: 400.0 mg/kg/injection, schedule: Q01DX001 (ip), vehicle: acetone) was 100 % of control, the T/C [6] was 94 % of control and the T/C [7] was 98 % of control.

In the case of `COc1cc([N+](=O)[O-])c2nc(/C=N/NC(N)=S)ccc2c1[N+](=O)[O-]`, the T/C (dose: 200.0 mg/kg/injection, schedule: Q01DX001 (ip), vehicle: saline) was 86 % of control.

`CC1=NCCN=C(C)CC(C)(C)[N-]CC[N-]C(C)(C)C1.[Cl-].[Cl-].[Co+3].[O-][Cl+3]([O-])([O-])O` was tested, and the T/C (dose: 150.0 mg/kg/injection, schedule: Q04DX002 (ip), vehicle: Klucel (hydroxypropylcellulose) (HPC)) was 97 % of control and the T/C (dose: 300.0 mg/kg/injection, schedule: Q04DX002 (ip), vehicle: Klucel (hydroxypropylcellulose) (HPC)) was 94 % of control.

For `CCCCCCCCCCCCCCCCOB(OCCCCCCCCCCCCCCCC)OCCCCCCCCCCCCCCCC`, the T/C [8] was 91 % of control, the T/C [9] was 96 % of control and the T/C [10] was 94 % of control.

With `CC(=O)c1cccc(OC(=O)Nc2ccc(Cl)cc2)c1` the T/C (dose: 100.0 mg/kg/injection, schedule: Q01DX001 (ip), vehicle: carboxymethylcellulose (CMC)) was 89 % of control, the T/C (dose: 100.0 mg/kg/injection, schedule: Q01DX009 (ip), vehicle: carboxymethylcellulose (CMC)) was 101 % of control and 102 % of control and the T/C (dose: 100.0 mg/kg/injection, schedule: Q04DX003 (ip), vehicle: carboxymethylcellulose (CMC)) was 92 % of control and 90 % of control. For the same compound, the T/C (dose: 200.0 mg/kg/injection, schedule: Q01DX001 (ip), vehicle: carboxymethylcellulose (CMC)) was 94 % of control, the T/C (dose: 200.0 mg/kg/injection, schedule: Q01DX009 (ip), vehicle: carboxymethylcellulose (CMC)) was 98 % of control and 90 % of control and the T/C (dose: 200.0 mg/kg/injection, schedule: Q04DX003 (ip), vehicle: carboxymethylcellulose (CMC)) was 95 % of control and 97 % of control. For the same compound, the T/C (dose: 400.0 mg/kg/injection, schedule: Q01DX001 (ip), vehicle: carboxymethylcellulose (CMC)) was 89 % of control, the T/C (dose: 400.0 mg/kg/injection, schedule: Q01DX009 (ip), vehicle: carboxymethylcellulose (CMC)) was 98 % of control and 88 % of control and the T/C (dose: 400.0 mg/kg/injection, schedule: Q04DX003 (ip), vehicle: carboxymethylcellulose (CMC)) was 90 % of control.

For `S=C(Nc1ccccc1)N(C1CCCCC1)C1CCCCC1`, the T/C (dose: 400.0 mg/kg/injection, schedule: Q01DX009 (ip), vehicle: saline with Tween-80) was 158 % of control.

For `CN1CN(c2ccccc2)C2(CCN(CC3Cc4cc(F)ccc4O3)CC2)C1=O` (stereo not given), the T/C (dose: 100.0 mg/kg/injection, schedule: Q01DX001 (ip), vehicle: Klucel (hydroxypropylcellulose) (HPC)) was 101 % of control, the T/C (dose: 200.0 mg/kg/injection, schedule: Q01DX001 (ip), vehicle: Klucel (hydroxypropylcellulose) (HPC)) was 98 % of control and the T/C (dose: 400.0 mg/kg/injection, schedule: Q01DX001 (ip), vehicle: Klucel (hydroxypropylcellulose) (HPC)) was 96 % of control.

With `COc1cc(Cl)ccc1NC(=S)Nc1ccccc1` the T/C [11] was 97 % of control, the T/C [12] was 101 % of control and the T/C [13] was 97 % of control.

With `COc1ccc(C)cc1NC(=O)OCCOc1ccc(C(C)(C)C)cc1` the T/C (dose: 50.0 mg/kg/injection, schedule: Q01DX009 (ip), vehicle: saline with Tween-80) was 90 % of control, the T/C (dose: 100.0 mg/kg/injection, schedule: Q01DX009 (ip), vehicle: saline with Tween-80) was 90 % of control and the T/C (dose: 200.0 mg/kg/injection, schedule: Q01DX009 (ip), vehicle: saline with Tween-80) was 90 % of control.

With `Cc1cc(C)c(C#N)c(=O)[nH]1` the T/C [14] was 97 % of control, the T/C [11] was 100 % of control and the T/C [15] was 97 % of control. For the same compound, the T/C [12] was 92 % of control, the T/C [16] was 88 % of control and the T/C [13] was 95 % of control.

For `O=c1c(O)c(O)c1=O`, the T/C (dose: 75.0 mg/kg/injection, schedule: Q01DX001 (ip), vehicle: carboxymethylcellulose (CMC)) was 89 % of control and the T/C (dose: 150.0 mg/kg/injection, schedule: Q01DX001 (ip), vehicle: carboxymethylcellulose (CMC)) was 98 % of control.

For `CC(=O)OCC(OC(C)=O)C(OC(C)=O)C(OC(C)=O)C(O)CO` (stereo not given), the T/C [3] was 96 % of control, the T/C [5] was 96 % of control and the T/C [7] was 96 % of control.

`O=C(/C=C/c1ccc2c(c1)OCO2)c1ccccc1` was tested, and the T/C (dose: 50.0 mg/kg/injection, schedule: Q01DX009 (ip), vehicle: Klucel (hydroxypropylcellulose) (HPC)) was 97 % of control, the T/C [14] was 103 % of control and the T/C [8] was 102 % of control. The T/C [15] was 106 % of control, the T/C [9] was 93 % of control and the T/C [16] was 103 % of control. The T/C [10] was 98 % of control.

`COC(=O)/C(O)=C/C(N)=O.COC(=O)/C(O)=C/C(N)=O.[Cu]` was tested, and the T/C (dose: 9.37 mg/kg/injection, schedule: Q01DX001 (ip), vehicle: carboxymethylcellulose (CMC)) was 89 % of control, the T/C (dose: 18.75 mg/kg/injection, schedule: Q01DX001 (ip), vehicle: carboxymethylcellulose (CMC)) was 87 % of control and the T/C (dose: 37.5 mg/kg/injection, schedule: Q01DX001 (ip), vehicle: carboxymethylcellulose (CMC)) was 96 % of control.

With `Cc1cc(C)c(O)c(CN(C)C)c1.[Cu+2]` the T/C (dose: 50.0 mg/kg/injection, schedule: Q01DX001 (ip), vehicle: saline) was 98 % of control and the T/C (dose: 100.0 mg/kg/injection, schedule: Q01DX001 (ip), vehicle: saline) was 98 % of control.

With `CC(=O)OC1C(C=O)OC(C)(C)OC1C1COC(=O)O1` (stereo not given) the T/C (dose: 25.0 mg/kg/injection, schedule: Q04DX002 (ip), vehicle: Klucel (hydroxypropylcellulose) (HPC)) was 104 % of control, the T/C (dose: 50.0 mg/kg/injection, schedule: Q04DX002 (ip), vehicle: Klucel (hydroxypropylcellulose) (HPC)) was 93 % of control and the T/C [11] was 100 % of control.

In the case of `CC(C)=CCC/C(C)=C/Cn1ccccc1=O`, the T/C (dose: 100.0 mg/kg/injection, schedule: Q01DX001 (ip), vehicle: saline with Tween-80) was 98 % of control and the T/C (dose: 200.0 mg/kg/injection, schedule: Q01DX001 (ip), vehicle: saline with Tween-80) was 98 % of control.

In the case of `O=C(O)CSC(SCC(=O)O)c1ccccc1`, the T/C (dose: 50.0 mg/kg/injection, schedule: Q04DX003 (ip), vehicle: Klucel (hydroxypropylcellulose) (HPC)) was 108 % of control, the T/C [8] was 107 % of control and the T/C [9] was 100 % of control. For the same compound, the T/C [10] was 110 % of control.

In the case of `CC(=O)CC(=O)NCc1cccc(C)n1`, the T/C [3] was 114 % of control, the T/C [5] was 98 % of control and the T/C [7] was 103 % of control.

In the case of `CCN(/N=C/c1ccc([N+](=O)[O-])o1)C(N)=O`, the T/C (dose: 25.0 mg/kg/injection, schedule: Q04DX002 (ip), vehicle: saline with Tween-80) was 100 % of control and the T/C [1] was 103 % of control.

With `CCCCCCCCCCCCCCCC(=O)NOCc1cscn1` the T/C (dose: 100.0 mg/kg/injection, schedule: Q01DX001 (ip), vehicle: other) was 104 % of control, the T/C [2] was 93 % of control and the T/C (dose: 200.0 mg/kg/injection, schedule: Q01DX001 (ip), vehicle: other) was 94 % of control. The T/C [4] was 93 % of control, the T/C (dose: 400.0 mg/kg/injection, schedule: Q01DX001 (ip), vehicle: other) was 98 % of control and the T/C [6] was 98 % of control.

In the case of `C=CCCCCCCCCC(=O)NCCCC(OCC)OCC`, the T/C [3] was 106 % of control, the T/C [5] was 95 % of control and the T/C [7] was 95 % of control.

With `Cc1ccnc(NC(=O)Nc2cc(C)ccc2C)c1` the T/C [14] was 94 % of control, the T/C [15] was 91 % of control and the T/C [16] was 92 % of control.

`C=C(C)C1CCC2=CCCC(C)C2(C)C1` (stereo not given) was tested, and the T/C [2] was 98 % of control and the T/C [4] was 96 % of control.

In the case of `C/C=C/C(=O)Nc1ccc(CC)cc1`, the T/C [14] was 95 % of control and the T/C [15] was 92 % of control.

For `CCN(CC)CCC(=O)OC(c1ccccc1)C1(O)CCSC1` (stereo not given), the T/C [8] was 106 % of control and the T/C [9] was 96 % of control.
